Test results from article PMC10853515, “Identification of potential inhibitor against Leishmania donovani mitochondrial DNA primase through in-silico and in vitro drug repurposing approaches” (Scientific Reports, 2024).

Biological target: T1, mitochondrial DNA primase (LdmtPRI1) (Leishmania donovani, UniProt A0A3S7WXR7)
T1 construct: gene LdCL_230015100; recombinant histidine-tagged LdmtPRI1 (pET28a), purified from E. coli BL21
T1 sequence (A0A3S7WXR7 1-533): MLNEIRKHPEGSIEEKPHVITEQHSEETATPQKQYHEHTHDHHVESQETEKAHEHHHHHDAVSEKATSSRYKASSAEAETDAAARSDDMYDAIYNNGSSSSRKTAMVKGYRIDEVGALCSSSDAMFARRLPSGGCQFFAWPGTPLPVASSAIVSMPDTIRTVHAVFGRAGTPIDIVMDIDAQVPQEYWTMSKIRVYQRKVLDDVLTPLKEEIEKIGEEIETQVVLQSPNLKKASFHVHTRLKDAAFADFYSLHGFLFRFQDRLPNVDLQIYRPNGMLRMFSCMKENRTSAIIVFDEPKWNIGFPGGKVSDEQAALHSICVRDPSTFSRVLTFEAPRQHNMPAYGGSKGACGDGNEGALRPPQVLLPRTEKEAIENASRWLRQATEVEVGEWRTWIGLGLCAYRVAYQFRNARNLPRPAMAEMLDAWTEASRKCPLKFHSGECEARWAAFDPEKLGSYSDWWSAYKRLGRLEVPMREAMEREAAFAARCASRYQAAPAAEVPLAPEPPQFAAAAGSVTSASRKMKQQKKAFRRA
Experiment: coupled primase-pyrophosphatase malachite green assay, purified enzyme
Assay type: biochemical

| IC50 [nM] | SMILES |
| --- | --- |
| 20.68 ± 0.03 | C/C(=C(\CCOP(=O)(O)O)SC(=O)c1ccccc1)N(C=O)Cc1cnc(C)nc1N [benfotiamine] |
| 15.27 ± 0.03 | CCCCCOC(=O)Nc1nc(=O)n([C@@H]2O[C@H](C)[C@@H](O)[C@H]2O)cc1F [capecitabine] |
